# Experimental data published in US11351218B2, “Composition for preventing or treating glioblastoma comprising Platycodon grandiflorum A. De Candolle, Scutellaria baicalensis, Phellodendron amurense Ruprecht or Rubus coreanus” (University-Industry Cooperation Group of Kyung Hee …, priority 2019, dated 2022).
# Tests used:
# normal human astrocytes = experiment: WST1 cell viability assay, normal astrocytes; assay type: cell-based; conditions: normal human astrocytes vs GBM cells, 48 hours
# Protocol: FIGS. 6A and 6B show the results that PD induces a decrease in cell viability and vacuole formation. […] Data shown represent the means of quintuplicate measurements which were repeated three times. The results are presented as a percentage of control (means±SD).
# Cell cytotoxicity was assessed by WST1 assay. U87 and U373 cells were each seeded in a 96-well plate (5×10^3 cells/well) and treated with different concentrations of platycodin D (PD). Then, cells were incubated with a WST1 reagent (Dogen, Seoul, Korea) for 2 hours before reading the plate. Absorbance was measured at 450 nm using an ELISA reader (Versa Max, Molecular Devices, Sunnyvale, Calif., USA).
# Inhibition of autophagy has been reported to cause cancer cell death. Therefore, the cytotoxic effects of PD on U87MG, U373MG, and normal astrocytes were examined. After treating these cells with various doses of PD for 48 hours, their cell viability was analyzed by WST1 assays. […] As can be confirmed in FIG. 6B, morphological changes were also visualized by an optical microscope after exposure of GBM cells to 10 μM PD for 24 hours.
# p-ERK = experiment: Immunoblot of ERK phosphorylation, U373MG cells; assay type: cell-based, human; conditions: PD treatment, 24 hours
# Protocol: FIGS. 10A to 10D show the results that PD-mediated autophagy inhibition is independent of mTOR and MAPK signaling pathways. FIGS. 10A to 10C show the results in which cells were treated with PD (0 μM, 0.5 μM, 1 μM, 5 μM, and 10 μM) for 24 hours. The immunoblot analyses for p-ULK1 (Ser757), ULK1, p-S6K (Thr389), p-AKT (Ser473), ERK2, P-ERK, p-JNK1, Beclin, and ATG7 were performed using lysates from GBMs. […] Total protein extracts were analyzed by immunoblot analyses for p-ERK, LC3B, and SQSTM1. GAPDH was used as an internal control.
# Cells treated with the concentrations and materials described in FIGS. 1-3B, 7, 8, 10, 13, 16, 18, and 20 were lysed in buffer containing 20 mM Tris-HCl (pH 7.5), 150 mM NaCl, 1 mM EDTA, 1 mM Na2EDTA, 1 mM EGTA, 1% NP-40, 1% sodium deoxycholate, 1 mM Na3VO4, 1 mM MPI, 1 mM PMSF, and PI cocktails for 15 to 20 minutes on ice. Cell lysates were separated by SDS-PAGE and transferred to nitrocellulose membranes. […] The protein bands were detected with ECL western Blotting Substrate (Thermo Fisher Scientific, Waltham, Mass., USA).
# Previous studies have shown that PD enhances autophagy via mTOR/MAPK pathway. […] It is known that mTORC1 activation, measured by S6K phosphorylation, inhibits autophagy initiation by phosphorylating the ULK1 (Ser 757). […]
# U87MG and U373MG cells = experiment: DQ Red-BSA trafficking assay (lysosomal proteolytic activity) in GBM cells; assay type: cell-based, human; conditions: PD 10 μM or BafA1 (100 μM), 24 hours
# Protocol: Cells were incubated with DMSO, PD (10 μM), or BafA1 (100 μM) for 24 hours, and then the cells were treated with DQ-BSA ([…]) for 30 minutes. Data shown are representative images of each sample. The fluorescence intensity of DQ-BSA was quantified with ImageJ software. More than 100 cells were counted in each condition and the number of puncta per cells is presented as means±SD from three independent experiments.
# Cells were placed on coverslips prior to treatment with the materials and continuously loaded with DQ Red-BSA (Invitrogen) at a working concentration of 10 μg/mL in a culture medium at 37° C. for 30 minutes. The cells were fixed in 4% PFA and then subjected to DAPI staining. The images were examined under a Zeiss laser confocal microscope. The number of DQ Red-BSA spots was quantified using ImageJ software.
# To confirm the lysosomal activity in PD-treated GBM cells, the DQ-BSA assay was performed to assess lysosomal protein degradation. In DQ-BSA, which is a red BODIPY dye conjugated to bovine serum albumin (BSA), the BSA is so heavily conjugated that the red fluorescence is self-quenched. Upon cleavage of the DQ-BSA by proteolytic enzymes in lysosomal compartments, this quenching is relieved, generating red fluorescence. Thus, DQ-BSA is a useful tool to visualize a lysosomal proteolytic activity.
# [1] = system: A549, H358, MCF7, HT29 and HepG2 cells; experiment: Immunoblot of LC3B and SQSTM1 in several cancer cell lines; assay type: cell-based; conditions: 24 hours, dose-dependent, all cancer cells tested
# Protocol: After treatment with indicated concentrations of PD or PG for 24 hours, the protein levels of LC3B and SQSTM1 were detected by immunoblot analysis in several cancer cell lines including A549 and H358 (lung cancer), MCF7 (breast cancer), HT29 (colon cancer), and HepG2 (liver cancer). GAPDH was used as a loading control.
# (§1) Cells treated with the concentrations and materials described in FIGS. 1-3B, 7, 8, 10, 13, 16, 18, and 20 were lysed in buffer containing 20 mM Tris-HCl (pH 7.5), 150 mM NaCl, 1 mM EDTA, 1 mM Na2EDTA, 1 mM EGTA, 1% NP-40, 1% sodium deoxycholate, 1 mM Na3VO4, 1 mM MPI, 1 mM PMSF, and PI cocktails for 15 to 20 minutes on ice. Cell lysates were separated by SDS-PAGE and transferred to nitrocellulose membranes. Immunodetection was performed with the following primary antibodies: rabbit anti-LC3B, rabbit anti-cathepsin B, rabbit-anti GAPDH (Cell Signaling Technology, Danvers, Mass.), mouse anti-SQSTM1/p62, and goat anti-cathepsin D (Santa CruzKPL, Gaithersburg, Md., USA) were incubated at room temperature for 1 hour. The protein bands were detected with ECL western Blotting Substrate (Thermo Fisher Scientific, Waltham, Mass., USA).
# In these studies, they were carried out to examine the accumulation of LC3B-II without checking p62 levels upon PD treatment and conclusions were drawn that PD acts as an inducer of autophagic cell death in these cancer cells. […]
# LDLR = experiment: Immunoblot of LDLR in U87MG, U373MG cells and normal astrocytes; assay type: cell-based, human; conditions: 24 hours
# Protocol: FIGS. 16A to 16D show the results that PD increases the expression of LDLR on cell surfaces in GBM cells. […] GAPDH was used as a loading control. […] GAPDH was used as a loading control.
# as §1
# Brain is the most cholesterol-rich organ of the body, containing about 20% of total body cholesterol. […] As can be confirmed in FIG. 16A, in consistent with these reports, the LDLR protein level was markedly elevated in U87MG and U373MG cells relative to normal human astrocytes. […] Then, the cell surface expression of LDLR was confirmed by flow cytometry.
compound,measurement,setting,value
"C[C@@H]1O[C@@H](O[C@H]2[C@H](OC(=O)[C@]34CCC(C)(C)C[C@H]3C3=CC[C@@H]5[C@@]6(C)C[C@H](O)[C@H](O[C@@H]7O[C@H](CO)[C@@H](O)[C@H](O)[C@H]7O)C(CO)(CO)[C@@H]6CC[C@@]5(C)[C@]3(C)C[C@H]4O)OC[C@H](O)[C@@H]2O)[C@H](O)[C@H](O)[C@H]1O[C@@H]1OC[C@@H](O)[C@H](O[C@@H]2OC[C@](O)(CO)[C@H]2O)[C@H]1O [PD, platycodin D]",PD-mediated reduction in cell viability,normal human astrocytes,less effective
same,phosphorylation levels of ERK,p-ERK,markedly increased
same,DQ-BSA red fluorescence vs DMSO,U87MG and U373MG cells,significant reduction
same,level of p62 together with LC3-II,[1],enhanced level
same,LDLR expression,"LDLR; PD 5 μM and 10 μM or U18666a 1 μM, U87MG, U373MG and normal astrocytes",significantly increased
same,"degree of LDLR expression, GBM cells vs normal astrocytes",LDLR; PD 5 μM and 10 μM,more prominent in GBM cells than in normal astrocytes
